US9617282B2, “Macrocyclic compounds as IRAK4 inhibitors for the treatment of inflammatory diseases” (BIOGEN MA INC., priority 2013, dated 2017)
Read-outs that look alike come from different tables or passages of the source.

Biological target: IRAK4 (Homo sapiens (Human), UniProt Q9NWZ3)
Assay: IRAK-4 biochemical kinase assay, AlphaScreen format
Procedure: The biochemical assay is in a AlphaScreen format. The kinase reaction is based on the IRAK-4 phosphorylation of a biotin labeled peptide. The phosphopeptide is incubated with anti-phosphothreonine antibody as well as streptavidin- and protein A-coated beads. Binding of the protein-A coated beads to the antibody and the streptavidin beads to the peptide, leads to an energy transfer from one bead to the other, ultimately producing a luminescent/fluorescent signal.

[1] = 1 nM IRAK4, 1.6 μM peptide, 10 μM ATP, 3.5 h at RT, class symbols
[2] = 1 nM IRAK4, 1.6 μM peptide, 10 μM ATP, 3.5 h at RT, given as numeric bound

IRAK4, sequence (Q9NWZ3 whole entry, species assumed): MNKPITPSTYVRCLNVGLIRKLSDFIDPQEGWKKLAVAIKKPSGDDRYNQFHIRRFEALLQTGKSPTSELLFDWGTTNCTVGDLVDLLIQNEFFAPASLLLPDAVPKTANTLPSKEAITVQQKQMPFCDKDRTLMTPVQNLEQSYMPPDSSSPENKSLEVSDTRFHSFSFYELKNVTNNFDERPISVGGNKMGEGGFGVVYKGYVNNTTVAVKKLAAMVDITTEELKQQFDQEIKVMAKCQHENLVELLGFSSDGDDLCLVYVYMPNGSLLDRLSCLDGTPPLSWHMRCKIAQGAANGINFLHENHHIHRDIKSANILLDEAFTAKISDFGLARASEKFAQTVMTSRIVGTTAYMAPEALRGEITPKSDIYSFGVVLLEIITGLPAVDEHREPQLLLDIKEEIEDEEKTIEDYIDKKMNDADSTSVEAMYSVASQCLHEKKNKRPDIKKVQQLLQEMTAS

| Compound | IC50 [1] | further results |
| --- | --- | --- |
| CN1CCN(CCn2ncc3c2C(=O)NCCOCCOc2cc(ccn2)-c2nc(cs2)C(=O)N3)CC1 [Example 141] | < 10000 nM | – |
| O=C1NCc2ccc(cc2)OCCOc2cc(ccn2)-c2nc1co2 [Example 78] | < 10000 nM | – |
| CN(C)C(=O)N1CCCc2cc(ccn2)-c2nc(cs2)C(=O)Nc2cn(C3CCOCC3)nc2C(=O)NCC1 [Example 187] | < 1000 nM | – |
| O=C1Nc2cn(C3CCOCC3)nc2C(=O)NCCOCCOc2cc(ccn2)-c2csc1n2 [Example 214] | < 1000 nM | – |
| O=C1c2csc(n2)-c2ccnc(c2)OCCCCOCC2CCCN12 (stereo not drawn) [Example 106] | < 10000 nM | – |
| O=C1Nc2cn(C3CCOCC3)nc2C(=O)NCCN(C(=O)CCO)CCCc2cc(ccn2)-c2nc1cs2 [Example 188] | < 100 nM | – |
| O=C1Nc2ccccc2OCCCCCOc2cc(ccn2)-c2nc1co2 [Compound 3] | < 1000 nM | – |
| O=C1Nc2ccccc2OCCCCCNc2cc(ccn2)-c2nc1cs2 [Compound 13] | < 100 nM | – |
| CNC(=O)c1ccc2c(c1)NC(=O)c1csc(n1)-c1ccnc(c1)NCCCCCO2 [Compound 17] | < 100 nM | – |
| Cn1cc2c(n1)C(=O)NCCOCCOc1cc(ccn1)-c1csc(n1)C(=O)N2 [Example 213] | < 10000 nM | – |
| O=C1NCCCCCCCCNc2cc(ccn2)-c2nc1cs2 [Example 64] | < 1000 nM | – |
| CC1CCCCOc2ccccc2NC(=O)c2coc(n2)-c2ccnc(c2)N1 (stereo not drawn) [Compound 10] | < 100 nM | – |
| O=C1Nc2cn(C3CCOCC3)nc2C(=O)NCCOCCOc2cc(ccn2)-c2cc1ccn2 [Example 212] | < 1000 nM | – |
| CCOC(=O)CCN1CCCc2cc(ccn2)-c2nc(cs2)C(=O)Nc2cn(C3CCOCC3)nc2C(=O)NCC1 [Example 180] | < 100 nM | – |
| O=C1c2coc(n2)-c2ccncc2OCCCN1CCCN1CCCCC1 [Example 102] | – | IC50 [2]: > 10000 nM |
| Cn1cc2c(n1)C(=O)NCCCCCOc1cnccc1-c1nc(co1)C(=O)N2 [Example 63] | < 100 nM | – |
| O=C1NCC(C2CCCCC2)OCCCCCNc2cc(ccn2)-c2nc1co2 (stereo not drawn) [Example 77] | – | IC50 [2]: > 10000 nM |
| O=C1NCC2CCCC(C2)OCCCNc2cc(ccn2)-c2nc1cs2 (stereo not drawn) [Example 80] | < 10000 nM | – |
| O=C1Nc2cn(C3CCNCC3)nc2C(=O)NCCOCCOc2cc(ccn2)-c2nc1cs2 [Example 165] | < 100 nM | – |
| Cn1cc2c(n1)C(=O)NCCOCCOc1cc(ccn1)-c1cccc(c1)C(=O)N2 [Example 209] | < 1000 nM | – |
| CC(C)(C)OC(=O)NCCC(=O)N1CCCc2cc(ccn2)-c2nc(cs2)C(=O)Nc2cn(C3CCOCC3)nc2C(=O)NCC1 [Example 171] | < 100 nM | – |

| Compound | IC50 [1] | further results |
| --- | --- | --- |
| CCOC(=O)CC(=O)N1CCCc2cc(ccn2)-c2nc(cs2)C(=O)Nc2cn(C3CCOCC3)nc2C(=O)NCC1 [Example 189] | < 100 nM | – |
| O=C(CCC1NC(=O)c2nn(C3CCOCC3)cc2NC(=O)c2csc(n2)-c2ccnc(c2)CCCNC1=O)NCc1ccccc1 (stereo not drawn) [Example 193] | < 1000 nM | – |
| CC1CCCC(C)Oc2ccccc2NC(=O)c2coc(n2)-c2ccnc(c2)N1 (stereo not drawn) [Example 71] | < 100 nM | – |
| O=C1Nc2cc(CCCN3CCCCC3)ccc2OCCCCCNc2cc(ccn2)-c2nc1cs2 [Compound 26] | < 100 nM | – |
| CN1CCOCCNC(=O)c2nn(C3CCOCC3)cc2NC(=O)c2csc(n2)-c2ccnc1c2 [Example 219] | < 100 nM | – |
| CCN1CCCCCCCCNc2cc(ccn2)-c2nc(cs2)C1=O [Example 66] | < 1000 nM | – |
| O=C1Nc2ccccc2OCCCCCCCn2cc(cn2)-c2nc1cs2 [Compound 6] | – | IC50: < 1000 nM |
| O=C1Nc2cn(C3CCOCC3)nc2C(=O)NC(CCO)C(=O)NCCCc2cc(ccn2)-c2nc1cs2 (stereo not drawn) [Example 198] | < 10000 nM | – |
| O=C1c2coc(n2)-c2ccnc(c2)OCCCCCCN1CCCN1CCCCC1 [Compound 57] | – | IC50 [2]: > 10000 nM |
| CCC(=O)N1CCCc2cc(ccn2)-c2nc(cs2)C(=O)Nc2cn(C3CCOCC3)nc2C(=O)NCC1 [Example 183] | < 100 nM | – |
| Cn1cc2c(n1)C(=O)NCCCCCc1cc(ccn1)-c1nc(co1)C(=O)N2 [Compound 39] | < 100 nM | – |
| CC1CCCCNc2cc(ccn2)-c2nc(co2)C(=O)Nc2ccccc2O1 (stereo not drawn) [Example 69] | < 100 nM | – |
| O=C1Nc2cn(C3CCOCC3)nc2C(=O)NCCOCCOc2cc(ccn2)-c2cccc1c2 [Example 210] | < 100 nM | – |
| CNC(=O)N1CCCc2cc(ccn2)-c2nc(cs2)C(=O)Nc2cn(C3CCOCC3)nc2C(=O)NCC1 [Example 186] | < 100 nM | – |
| CCn1cc(N2CCCCCCOc3cc(ccn3)-c3nc(co3)C2=O)cn1 [Compound 50] | – | IC50 [2]: > 10000 nM |
| O=C1c2coc(n2)-c2ccnc(c2)OCCCCCCN1Cc1ccccc1 [Compound 51] | < 10000 nM | – |
| O=C1NCC(c2ccccc2)OCCCCCNc2cc(ccn2)-c2nc1co2 (stereo not drawn) [Example 76] | < 100 nM | – |
| CN1CCCCCCOc2cc(ccn2)-c2nc(cs2)C1=O [Example 103] | < 10000 nM | – |
| NC(=O)c1ccc2c(c1)NC(=O)c1csc(n1)-c1ccnc(c1)NCCCCCO2 [Compound 24] | < 100 nM | – |
| O=C1Nc2cc(Br)ccc2OCCCCCNc2cc(ccn2)-c2nc1cs2 [Example 73] | < 100 nM | – |
| O=C1c2coc(n2)-c2ccnc(c2)OCCCCCCN1CCN1CCCCC1 [Compound 56] | – | IC50 [2]: > 10000 nM |

| Compound | IC50 [1] | further results |
| --- | --- | --- |
| O=C1Nc2cn(C3CCOCC3)nc2C(=O)NCCCOCCCc2cc(ccn2)-c2nc1cs2 [Example 216] | < 100 nM | – |
| O=C1Nc2ccccc2OCC/C=C/COc2cc(ccn2)-c2nc1co2 [Example 1] | < 100 nM | – |
| O=C1Nc2cn(C3CCOCC3)nc2C(=O)NCCN(C(=O)C2CCOCC2)CCCc2cc(ccn2)-c2nc1cs2 [Example 190] | < 100 nM | – |
| CN(C)CCC(=O)N1CCCc2cc(ccn2)-c2nc(cs2)C(=O)Nc2cn(C3CCOCC3)nc2C(=O)NCC1 [Example 177] | < 100 nM | – |
| Cn1cc2c(n1)C(=O)NCCOCCOc1cc(ccn1)-n1cc(cn1)C(=O)N2 [Example 202] | < 10000 nM | – |
| O=C1NCCCCCCCCNc2cc(ccn2)-c2nc1co2 [Example 68] | < 100 nM | – |
| CCN1CCCCCCCCNC(=O)c2csc(n2)-c2ccnc1c2 [Example 67] | < 1000 nM | – |
| CCN1CCCCCCOc2cc(ccn2)-c2nc(co2)C1=O [Compound 53] | < 100 nM | – |
| Cn1cc2c(n1)C(=O)NCCOCCOc1cc(ccn1)C1=CC=C(S1)C(=O)N2 [Example 205] | – | IC50 [2]: > 10000 nM |
| C[Si](C)(C)CCOCn1cc2nc1-c1ccnc(c1)CCCCCNC(=O)c1nn(C3CCOCC3)cc1NC2=O [Example 98] | < 10000 nM | – |
| Cn1cc2c(n1)C(=O)NCCOCCOc1cc(ccn1)-c1cccc(n1)C(=O)N2 [Example 203] | < 100 nM | – |
| COC(=O)c1ccc2c(c1)NC(=O)c1csc(n1)-c1ccnc(c1)NCCCCCO2 [Compound 14] | – | IC50 [2]: > 10000 nM |
| O=C1Nc2ccccc2OCCCCNc2cc(ccn2)-c2nc1co2 [Example 70] | – | IC50 [2]: > 10000 nM |
| CN(C)CCCN1CCCCCCOc2cc(ccn2)-c2nc(co2)C1=O [Compound 55] | – | IC50 [2]: > 10000 nM |
| O=C(O)CCC1NC(=O)c2nn(C3CCOCC3)cc2NC(=O)c2csc(n2)-c2ccnc(c2)CCCNC1=O (stereo not drawn) [Example 194] | < 10000 nM | – |
| Cn1cc(N2CCCCOc3cnccc3-c3nc(co3)C2=O)cn1 [Example 89] | – | IC50 [2]: > 10000 nM |
| O=C1Nc2cc(C(=O)N3CCOCC3)ccc2OCCCCCNc2cc(ccn2)-c2nc1cs2 [Compound 22] | < 100 nM | – |
| Cn1cc2c(n1)C(=O)NCCCOCCCc1cc(ccn1)-c1nc(cs1)C(=O)N2 [Example 215] | < 100 nM | – |
| O=C1Nc2ccccc2OCCCCCCc2cc(ccn2)-c2nc1co2 [Compound 5] | < 100 nM | – |
| O=C1Nc2cn(C3CCOCC3)nc2C(=O)NCCCCOc2cc(ccn2)-c2nc1co2 [Compound 36] | < 100 nM | – |
| O=C(NCCN1CCOCC1)c1ccc2c(c1)NC(=O)c1csc(n1)-c1ccnc(c1)NCCCCCO2 [Compound 19] | < 100 nM | – |

| Compound | IC50 [1] | further results |
| --- | --- | --- |
| CN(C)C1CCN(C(=O)c2ccc3c(c2)NC(=O)c2csc(n2)-c2ccnc(c2)NCCCCCO3)C1 (stereo not drawn) [Compound 21] | < 100 nM | – |
| O=C1Nc2ccccc2OCCCCCCCn2cc(cn2)-c2nc1co2 [Compound 8] | < 100 nM | – |
| Cn1cc2c(n1)C(=O)NCCCCOc1cc(ccn1)-c1nc(cn1COCC[Si](C)(C)C)C(=O)N2 [Example 94] | – | IC50 [2]: > 10000 nM |
| CC(C)(C)OC(=O)N1CCNC(=O)c2nn(C3CCOCC3)cc2NC(=O)c2csc(n2)-c2ccnc(c2)OCC1 [Example 167] | < 1000 nM | – |
| Cn1cc2c(n1)C(=O)NCCCCCc1cc(ccn1)-c1nc(cn1COCC[Si](C)(C)C)C(=O)N2 [Example 99] | < 10000 nM | – |
| Cn1cc2c(n1)C(=O)NCCCCOc1cnccc1-c1nc(co1)C(=O)N2 [Example 62] | < 1000 nM | – |
| O=C1NCC2CCC(CC2)OCCNc2cc(ccn2)-c2nc1co2 [Example 85] | < 1000 nM | – |
| CC1CNC(=O)c2coc(n2)-c2ccnc(c2)NCCCCCO1 (stereo not drawn) [Example 74] | < 10000 nM | – |
| CN1CCCOc2cnccc2-c2nc(cs2)C1=O [Example 100] | – | IC50 [2]: > 10000 nM |
| O=C(O)CCN1CCCc2cc(ccn2)-c2nc(cs2)C(=O)Nc2cn(C3CCOCC3)nc2C(=O)NCC1 [Example 179] | < 100 nM | – |
| O=C1CCc2cc(ccn2)-c2nc(cs2)C(=O)Nc2cn(C3CCOCC3)nc2C(=O)NCCN1 [Example 225] | < 100 nM | – |
| O=C1NCCCCCCOc2cc(ccn2)-c2nc1co2 [Compound 58] | < 1000 nM | – |
| CN1CCCOc2cnccc2-c2nc(c[nH]2)C1=O [Example 101] | – | IC50 [2]: > 10000 nM |
| CN1CCCCNC(=O)c2nn(C3CCOCC3)cc2NC(=O)c2csc(n2)-c2ccnc1c2 [Example 224] | < 100 nM | – |
| CC(C)(CO)C(=O)N1CCCc2cc(ccn2)-c2nc(cs2)C(=O)Nc2cn(C3CCOCC3)nc2C(=O)NCC1 [Example 185] | < 100 nM | – |
| CN1CCOCCNC(=O)c2nn(C)cc2NC(=O)c2csc(n2)-c2ccnc1c2 [Example 222] | < 100 nM | – |
| Cn1cc2c(n1)C(=O)NCCCCOc1cc(ccn1)-c1nc(c[nH]1)C(=O)N2 [Example 92] | < 10000 nM | – |
| O=C(O)c1ccc2c(c1)NC(=O)c1csc(n1)-c1ccnc(c1)NCCCCCO2 [Compound 15] | < 10000 nM | – |
